In publication PMC6934184, “Selective DNA-PKcs inhibition extends the therapeutic index of localized radiotherapy and chemotherapy” (The Journal of Clinical Investigation, 2019) one finds inhibition data, which are given here for 1 molecule.

The assay addresses T1, ABL1 M351T (Homo sapiens, UniProt P00519, M351T).
T1 construct: purchased Thermo Fisher Scientific (Life Technologies) SelectScreen
The assay can be described thus: SelectScreen LanthaScreen. Format: binding. Particulars: read-out: % displacement. The method, boiled down:
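SelectScreen broad panel; activity (Z'LYTE, Adapta) plus binding formats. ATP: Km app for CSF1R Z'LYTE; 10 for CAMK1 Adapta. Readout = % per kinase.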

As to `CN(C(=O)CN1CCOCC1)c1ccc2sc3c(-c4cccc5c(=O)cc(N6CC7CCC(C6)O7)oc45)cccc3c2c1` [NU5455], the inhibition at 1 µM was -1%.
